According to US20260048064A1, “AMORPHOUS SOLID DISPERSIONS COMPRISING NAPORAFENIB” (Novartis AG, priority 2022, published 2026):
≈ marks a conversion by molar mass, not a printed value. Structures can show the parent of a compound that is named as a salt. Blank lines part the entries; values can stand above or below the molecule they belong to.

Tests used:
Type in all cases: physicochemical
[1] = Solubility at 25° C. in SGF, FaSSIF, FeSSIF (Table 1A)
Procedure: (§1) Several physical forms of Compound A were analyzed: the free base, tartrate salt, and tosylate salt.

[2] = Polymorphism (Table 1A)
Procedure: as §1

[3] = Hygroscopicity (Table 1A)
Procedure: as §1

[4] = Bulk stability at 80° C./75% RH, 1 week (Table 1A)
Procedure: as §1

[5] = Stability in aqueous solutions (Table 1A)
Procedure: as §1

[6] = Solubility at various pH and in biorelevant media (Table 1B)
Description: Compound A has very limited solubility in all pHs.

[7] = Light stability, 1.2 MLux h (Table 1A)
Procedure: as §1

[8] = Stability in solution/suspension at pH 1, 4.5, 7.4 under heat (Table 1E); conditions: 5 days
[9] = Bulk solid stability under thermal stress (Table 1D); conditions: 5 days
[10] = Photostability under light stress (Table 1C); conditions: RT, light dose 1.2 Lux·h*10^6
Description: The photostability of crystalline hydrate and crystalline tosylate forms of Compound A under photo, or light stress is provided in Table 1C.

Solubility at 25° C. ([1]; FaSSIF): 1.4 µg/mL (≈ 2.79 µM)
pH final of solubility test ([1]; FaSSIF): 6.91
pH final of solubility test ([1]; FeSSIF): 6.08
Solubility ([1]; FeSSIF, 25 °C, thermodynamic from solid): 137 µg/mL (≈ 273 µM)
Solubility at 25° C. ([1]; SGF): 2.1 µg/mL (≈ 4.18 µM)
pH final of solubility test ([1]; SGF): 2.02
Polymorphism [2]: Yes
Hygroscopicity [3]: Low
Bulk stability (degradation) [4]: week), slight
Stability in aqueous solutions ([5]; pH 1.2 and pH 10.0): Significant degradation
Stability in aqueous solutions ([5]; pH 2.9 to 6.8): Relatively stable at pH
Solubility ([6]; FaSSIF V2): 0.035 mg/mL (≈ 69.7 µM)
pH final of solubility test ([6]; FaSSIF V2): 6.51
Solubility ([6]; FeSSIF V2): 0.576 mg/mL (≈ 1150 µM)
pH final of solubility test ([6]; FeSSIF V2): 5.82
Solubility ([6]; SGF pH 2.0): 0.699 mg/mL (≈ 1390 µM)
pH final of solubility test ([6]; SGF pH 2.0): 1.86
Solubility ([6]; Water): 0.002 mg/mL (≈ 3.98 µM)
pH final of solubility test ([6]; Water): 7.33
Solubility ([6]; pH 1): 0.4 mg/mL (≈ 796 µM)
pH final of solubility test ([6]; pH 1): 1.07
Solubility ([6]; pH 2): 0.14 mg/mL (≈ 279 µM)
pH final of solubility test ([6]; pH 2): 1.96
pH final of solubility test ([6]; pH 4.5): 4.56
Solubility ([6]; pH 4.5, aqueous buffer, thermodynamic from solid, pH 4.5, read-out: Solubility): 0.002 mg/mL (≈ 3.98 µM)
pH final of solubility test ([6]; pH 7.4): 7.33
Solubility ([6]; pH 7.4, aqueous buffer, thermodynamic from solid, pH 7.4, read-out: Solubility): 0.001 mg/mL (≈ 1.99 µM)
Light stability (1.2 MLux h) [7]: Slight degradation
SMILES: Cc1ccc(NC(=O)c2ccnc(C(F)(F)F)c2)cc1-c1cc(OCCO)nc(N2CCOCC2)c1 [Compound A (free base), N-(3-(2-(2-hydroxyethoxy)-6-morpholinopyridin-4-yl)-4-methylphenyl)-2-(trifluoromethyl)isonicotinamide]

Solubility at 25° C. ([1]; FaSSIF): 1.1 µg/mL
pH final of solubility test ([1]; FaSSIF): 6.66
Solubility at 25° C. ([1]; FeSSIF): 115.8 µg/mL
pH final of solubility test ([1]; FeSSIF): 5.58
Solubility at 25° C. ([1]; SGF): 10 µg/mL
pH final of solubility test ([1]; SGF): 1.75
Polymorphism [2]: No issue encountered
Parent remaining [%] (HPLC) ([8]; pH 1, 50 ° C.): 23%
Parent remaining [%] (HPLC) ([8]; pH 1, 80 ° C.): 0.2%
Parent remaining [%] (HPLC) ([8]; pH 1, RT): 97%
Parent remaining [%] (HPLC) ([8]; pH 4.5, 50 ° C.): >99%
Parent remaining [%] (HPLC) ([8]; pH 4.5, 80 ° C.): 98.6%
Parent remaining [%] (HPLC) ([8]; pH 4.5, RT): >99%
Parent remaining [%] (HPLC) ([8]; pH 7.4, 50 ° C.): 97%
Parent remaining [%] (HPLC) ([8]; pH 7.4, 80 ° C.): 74%
Parent remaining [%] (HPLC) ([8]; pH 7.4, RT): >99%
Appearance/XRPD/DSC ([9]; 50 ° C.): No change
Parent remaining [%] (HPLC) ([9]; 50 ° C.): >99%
Appearance/XRPD/DSC ([9]; 80 ° C.): No change
Parent remaining [%] (HPLC) ([9]; 80 ° C.): >99%
Appearance/XRPD/DSC ([9]; RT): No change
Parent remaining [%] (HPLC) ([9]; RT): >99%
Hygroscopicity [3]: Low
Appearance/XRPD/DSC ([10]; Bulk): No change
Degradation Products [%] (HPLC) ([10]; Bulk): <1.0%
Degradation Products [%] (HPLC) ([10]; Ethanol): 97%
Bulk stability (degradation) [4]: 75% RH (1 week), no
Bulk stability (physical) [4]: Physically unstable at 80° C./
Solubility ([6]; FaSSIF V2): 0.016 mg/mL
pH final of solubility test ([6]; FaSSIF V2): 6.07
Solubility ([6]; FeSSIF V2): 0.051 mg/mL
pH final of solubility test ([6]; FeSSIF V2): 5.41
Solubility ([6]; SGF pH 2.0): 0.029 mg/mL
pH final of solubility test ([6]; SGF pH 2.0): 2.02
Solubility ([6]; Water): 5.14 mg/mL
pH final of solubility test ([6]; Water): 2.71
Solubility ([6]; pH 1): 0.106 mg/mL
pH final of solubility test ([6]; pH 1): 1.23
Solubility ([6]; pH 4.5): 0.002 mg/mL
pH final of solubility test ([6]; pH 4.5): 3.85
Solubility ([6]; pH 7.0): 0.002 mg/mL
pH final of solubility test ([6]; pH 7.0): 6.83
Light stability (1.2 MLux h) [7]: No degradation
SMILES: Cc1ccc(NC(=O)c2ccnc(C(F)(F)F)c2)cc1-c1cc(OCCO)nc(N2CCOCC2)c1 [Compound A (tosylate salt), N-(3-(2-(2-hydroxyethoxy)-6-morpholinopyridin-4-yl)-4-methylphenyl)-2-(trifluoromethyl)isonicotinamide]

Appearance/XRPD/DSC ([10]; Bulk): No change
Degradation Products [%] (HPLC) ([10]; Bulk): <1.0%
Degradation Products [%] (HPLC) ([10]; Ethanol): 18%
Solubility ([6]; FaSSIF V2): 0.004 mg/mL
pH final of solubility test ([6]; FaSSIF V2): 6.44
Solubility ([6]; FeSSIF V2): 0.047 mg/mL
pH final of solubility test ([6]; FeSSIF V2): 5.6
Solubility ([6]; SGF pH 2.0): 0.025 mg/mL
pH final of solubility test ([6]; SGF pH 2.0): 2.19
Solubility ([6]; Water): 0.001 mg/mL
pH final of solubility test ([6]; Water): 5.99
Solubility ([6]; pH 1): 0.17 mg/mL
pH final of solubility test ([6]; pH 1): 1.23
Solubility ([6]; pH 4.5): 0.001 mg/mL
pH final of solubility test ([6]; pH 4.5): 4.0
Solubility ([6]; pH 7.0): 0.0008 mg/mL
pH final of solubility test ([6]; pH 7.0): 7.0
SMILES: Cc1ccc(NC(=O)c2ccnc(C(F)(F)F)c2)cc1-c1cc(OCCO)nc(N2CCOCC2)c1 [Compound A (hydrate), N-(3-(2-(2-hydroxyethoxy)-6-morpholinopyridin-4-yl)-4-methylphenyl)-2-(trifluoromethyl)isonicotinamide]

Solubility at 25° C. ([1]; FaSSIF): 0.6 µg/mL
pH final of solubility test ([1]; FaSSIF): 3.54
Solubility at 25° C. ([1]; FeSSIF): 109.2 µg/mL
pH final of solubility test ([1]; FeSSIF): 4.93
Solubility at 25° C. ([1]; SGF): 53.5 µg/mL
pH final of solubility test ([1]; SGF): 1.89
Polymorphism [2]: Potential issue
Hygroscopicity [3]: High
Bulk stability (degradation) [4]: week), significant
Stability in aqueous solutions ([5]; pH 1.2 and pH 10.0): Significant degradation
Stability in aqueous solutions ([5]; pH 2.9 to 6.8): Relatively stable at pH
Light stability (1.2 MLux h) [7]: Significant degradation
SMILES: Cc1ccc(NC(=O)c2ccnc(C(F)(F)F)c2)cc1-c1cc(OCCO)nc(N2CCOCC2)c1 [Compound A (tartrate salt), N-(3-(2-(2-hydroxyethoxy)-6-morpholinopyridin-4-yl)-4-methylphenyl)-2-(trifluoromethyl)isonicotinamide]
